In US9938262B2, “Benzamides” (Merck Patent GmbH, priority 2011, dated 2018):
Like-named read-outs stand apart in the source and are kept apart here.

Assays:
[1] = biological target: T1, FSHR (Homo sapiens, UniProt P23945); test: EC50 of cyclic AMP production in CHO FSHR cells + EC20 FSH (Assay A); assay type: cell-based
T1 construct: expressed in transfected cells; host or cells: CHO (Cho-FSHR-LUC-1-1-43)
Method in brief: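 cAMP HTRF ratio (665/620 nm) read after 1 h, 37 °C exposure of CHO-FSHR cells to compound in presence of EC20 FSH ([…]) and IBMX 200 μM. Responses given relative to FSH standard maximum; EC50 derived.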

[2] = biological target: T2, follicle-stimulating hormone (FSH) receptor (Rattus norvegicus, UniProt P20395); test: Rat granulosa EC50 FSH (Assay B); assay type: cell-based; conditions: rat granulosa cells
T2 construct: endogenous in cells; host or cells: rat granulosa cells
T2 sequence (P20395 18-692): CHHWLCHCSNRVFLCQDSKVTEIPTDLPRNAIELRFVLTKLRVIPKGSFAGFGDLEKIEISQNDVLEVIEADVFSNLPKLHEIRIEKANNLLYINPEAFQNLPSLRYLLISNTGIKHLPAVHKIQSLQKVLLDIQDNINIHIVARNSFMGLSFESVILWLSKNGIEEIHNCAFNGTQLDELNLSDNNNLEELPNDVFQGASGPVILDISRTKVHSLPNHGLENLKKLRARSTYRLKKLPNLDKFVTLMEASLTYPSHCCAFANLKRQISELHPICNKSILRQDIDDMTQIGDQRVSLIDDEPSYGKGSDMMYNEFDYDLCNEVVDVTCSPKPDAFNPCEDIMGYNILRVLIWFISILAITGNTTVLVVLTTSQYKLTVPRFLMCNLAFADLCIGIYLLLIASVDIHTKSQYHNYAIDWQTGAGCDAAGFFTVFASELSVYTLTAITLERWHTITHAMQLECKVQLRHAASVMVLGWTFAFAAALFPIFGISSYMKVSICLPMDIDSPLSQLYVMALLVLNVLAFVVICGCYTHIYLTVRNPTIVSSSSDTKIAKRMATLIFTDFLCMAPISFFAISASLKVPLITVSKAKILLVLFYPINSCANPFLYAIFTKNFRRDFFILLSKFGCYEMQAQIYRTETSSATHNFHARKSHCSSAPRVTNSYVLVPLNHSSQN
Method: Example 11: Rat Granulosa EC50 FSH (Assay B)
The assay was performed pursuant to the teaching of Yanofsky et al. (2006) Allosteric activation of the follicle-stimulating hormone (FSH) receptor by selective, nonpeptide agonists. JBC 281(19): 13226-13233, which is incorporated by reference in the disclosure of the invention.

[3] = CHO FSHR cells + EC20 FSH, Table 1, read-out: Assay A EC50 of cyclic AMP production
[4] = CHO FSHR cells + EC20 FSH, Table 2, read-out: Assay A EC50 of cyclic AMP production

T1 sequence (P23945 18-695): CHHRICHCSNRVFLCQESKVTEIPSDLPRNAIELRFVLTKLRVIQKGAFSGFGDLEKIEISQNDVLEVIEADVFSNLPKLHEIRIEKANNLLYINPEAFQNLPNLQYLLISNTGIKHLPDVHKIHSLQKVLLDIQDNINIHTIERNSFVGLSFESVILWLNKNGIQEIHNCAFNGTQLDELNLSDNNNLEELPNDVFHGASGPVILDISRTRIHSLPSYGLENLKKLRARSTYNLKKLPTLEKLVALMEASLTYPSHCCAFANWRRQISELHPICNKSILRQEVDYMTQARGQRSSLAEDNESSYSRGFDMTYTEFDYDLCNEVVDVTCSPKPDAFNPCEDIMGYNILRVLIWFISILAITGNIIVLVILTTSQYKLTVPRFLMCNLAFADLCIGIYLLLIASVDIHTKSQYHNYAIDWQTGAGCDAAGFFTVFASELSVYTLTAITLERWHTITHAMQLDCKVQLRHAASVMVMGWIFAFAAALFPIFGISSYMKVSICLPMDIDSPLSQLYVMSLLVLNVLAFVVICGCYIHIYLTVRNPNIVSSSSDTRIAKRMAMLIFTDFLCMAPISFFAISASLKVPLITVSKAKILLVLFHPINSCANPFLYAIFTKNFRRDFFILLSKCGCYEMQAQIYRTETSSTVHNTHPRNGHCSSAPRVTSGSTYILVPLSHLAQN
T1 sequence (P01215 25-116 partner): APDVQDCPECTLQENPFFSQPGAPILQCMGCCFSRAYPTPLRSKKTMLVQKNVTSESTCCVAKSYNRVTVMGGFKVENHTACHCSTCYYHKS
T1 sequence (P01225 19-129 partner): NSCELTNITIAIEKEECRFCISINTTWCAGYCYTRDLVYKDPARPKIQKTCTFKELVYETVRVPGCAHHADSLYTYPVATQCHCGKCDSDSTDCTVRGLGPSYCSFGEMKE

SMILES	EC50 [1, 3] [nM]	EC50 ([2]; Table 1) [nM]	EC50 [1, 4] [nM]	EC50 ([2]; Table 2) [nM]	further results
Cc1ccccc1N1CCN(c2ccc(C(=O)NCCCN3CCCC3=O)cc2NC(=O)c2cscn2)CC1 [Compound 73]	100 to 1000	1000 to 10000			
Cc1nc(C(=O)Nc2cc(C(=O)NCCCN3CCCC3=O)ccc2N2CCN(c3ccccc3C)CC2)cs1 [Compound 74]	100 to 1000	100 to 1000			
CCc1nc(C(=O)Nc2cc(C(=O)NCCCN3CCCC3=O)ccc2N2CCN(c3ccccc3C)CC2)co1 [Compound 79]	100 to 1000	100 to 1000			
Cc1ccccc1N1CCN(c2ccc(C(=O)NCCCN3CCCC3=O)cc2NC(=O)c2coc(C3CC3)n2)CC1 [Compound 105]	< 100	100 to 1000			
Cc1ccccc1N1CCN(c2ccc(C(=O)NCCCN3CCCC3=O)cc2NC(=O)c2ccc(Br)o2)CC1 [Compound 143, 5-Bromo-furan-2-carboxylic acid [5-[3-(2-oxo-pyrrolidin-1-yl)-propylcarbamoyl]-2-(4-o-tolyl-piperazin-1-yl)-phenyl]-amide]		100 to 1000			EC50 [1]: 100 to 1000 nM
Cc1csc(C(=O)Nc2cc(C(=O)NCCCN3CCCC3=O)ccc2N2CCN(c3ccccc3C)CC2)n1 [Compound 203]	100 to 1000	100 to 1000			
Cc1ccccc1N1CCN(c2ccc(C(=O)NCCCN3CCCC3=O)cc2NC(=O)c2coc(Cl)n2)CC1 [Compound 207]	100 to 1000	100 to 1000			
Cc1ccccc1N1CCN(c2ccc(C(=O)N3CCC4(CCOC4)CC3)cc2NC(=O)c2ccco2)CC1 [Compound 224]		1000 to 10000			activation at 5 µM ([1]; 1 h, 5 μM, effect relative to maximum response of the FSH standard, Table 1): 10%
Cc1ccc(C(=O)Nc2cc(C(=O)NCCCN3CCCC3=O)ccc2N2CCN(c3ccccc3C(F)(F)F)CC2)o1 [Compound 246]	1000 to 10000	1000 to 10000			
Cc1ccccc1N1CCN(c2ccc(C(=O)N[C@H]3O[C@@H](CO)[C@H](O)[C@@H]3O)cc2NC(=O)c2coc(C3CC3)n2)CC1 [Compound 311]			100 to 1000	100 to 1000	
Cc1ccccc1N1CCN(c2ccc(C(=O)NCCS(=O)(=O)N3CCCC3)cc2NC(=O)c2coc(C3CC3)n2)CC1 [Compound 344]			1000 to 10000	100 to 1000	
Cc1ccccc1N1CCN(c2ccc(C(=O)NCCCN3C(=O)[C@H]4C[C@@H]3C(O)C4O)cc2NC(=O)c2coc(C3CC3)n2)CC1 (some centres unmarked) [Compound 365]			100 to 1000	< 100	
Cc1ccccc1N1CCN(c2ccc(C(=O)NCCCc3nn[nH]n3)cc2NC(=O)c2coc(C3CC3)n2)CC1 [Compound 392]			< 100	100 to 1000	
Cc1nc(C)n(CCCNC(=O)c2ccc(N3CCN(c4ccccc4C)CC3)c(NC(=O)c3coc(C4CC4)n3)c2)n1 [Compound 394]			100 to 1000		Assay B % at 1.25 μM ([2]; Table 2): 50%
Cc1ccc(CNc2cc(C(=O)NCCCN3CCCC3=O)ccc2N2CCN(c3ccccc3C)CC2)o1 [Compound 410]			100 to 1000	1000 to 10000	
Cc1ccccc1N1CCN(c2ccc(C(=O)NCCCN3CCCC3=O)cc2NC(=O)c2ccn(C)n2)CC1 [Compound 435]			100 to 1000	100 to 1000	
O=C(NCCCN1CCCC1=O)c1ccc(N2CCN(c3ncccc3Cl)CC2)c(NC(=O)c2coc(C3CC3)n2)c1 [Compound 510]			< 100	1000 to 10000	
Cc1ccc(C(=O)Nc2cc(C(=O)NCCCN3CCCC3=O)ccc2N2CCN(c3ccccc3C3CC3)CC2)o1 [Compound 523]			100 to 1000	100 to 1000	
Cc1ccccc1N1CCN(c2ccc(C(=O)NCCCN3CCCC3=O)cc2NCc2ccccn2)CC1 [Compound 526]			100 to 1000	> 10000	
Cc1ccnc(N2CCN(c3ccc(C(=O)NCCCN4CCCC4=O)cc3NC(=O)c3coc(C4CC4)n3)CC2)c1 [Compound 529]			100 to 1000	1000 to 10000	
COc1ccnc(N2CCN(c3ccc(C(=O)NCCCN4CCCC4=O)cc3NC(=O)c3coc(C4CC4)n3)CC2)n1 [Compound 601]			100 to 1000	1000 to 10000	

Further lines, with some results ahead:

EC50 [1, 3] [nM]	EC50 ([2]; Table 1) [nM]	EC50 [1, 4] [nM]	EC50 ([2]; Table 2) [nM]	SMILES	further results
100 to 1000	1000 to 10000			Cc1ccccc1N1CCN(c2ccc(C(=O)NCCCN3CCCC3=O)cc2NC(=O)c2ccccc2F)CC1 [Compound 85]	
100 to 1000	100 to 1000			Cc1ccccc1N1CCN(c2ccc(C(=O)NCCCN3CCCC3=O)cc2NC(=O)c2ccc(F)cn2)CC1 [Compound 128]	
100 to 1000	100 to 1000			Cc1ccccc1N1CCN(c2ccc(C(=O)NCCCN3CCCC3=O)cc2NC(=O)c2ccc(Cl)o2)CC1 [Compound 135]	
100 to 1000	100 to 1000			Cc1ccccc1N1CCN(c2ccc(C(=O)NCCCN3C(=O)CCC3=O)cc2NC(=O)c2ccco2)CC1 [Compound 147]	
100 to 1000	100 to 1000			Cc1ccccc1N1CCN(c2ccc(C(=O)NCCCN3C(=O)CSC3=O)cc2NC(=O)c2ccco2)CC1 [Compound 150]	
100 to 1000	< 100			Cc1ccccc1N1CCN(c2ccc(C(=O)NCCCc3cn[nH]c3)cc2NC(=O)c2ccco2)CC1 [Compound 152]	
100 to 1000	1000 to 10000			Cc1ccccc1N1CCN(c2ccc(C(=O)NCCCN3CCOC3=O)cc2NC(=O)c2ccco2)CC1 [Compound 155]	
100 to 1000	1000 to 10000			C#Cc1ccc(C(=O)Nc2cc(C(=O)NCCCN3CCCC3=O)ccc2N2CCN(c3ccccc3C)CC2)o1 [Compound 176, 5-ethynyl-furan-2-carboxylic acid [5-[3-(2-oxo-pyrrolidin-1-yl)-propylcarbamoyl]-2-(4-o-tolyl-piperazin-1-yl)-phenyl]-amide]	
100 to 1000	100 to 1000			Cc1ccccc1N1CCN(c2ccc(C(=O)NCCc3cccc(C(N)=O)c3)cc2NC(=O)c2ccco2)CC1 [Compound 188]	
< 100	100 to 1000			Cc1ccccc1N1CCN(c2ccc(C(=O)NCc3cccc(C(N)=O)c3)cc2NC(=O)c2ccco2)CC1 [Compound 189]	
100 to 1000				Cc1ccc(C(=O)Nc2cc(C(=O)NCCCCO)ccc2N2CCN(c3ccccc3C)CC2)o1 [Compound 241, 5-Methyl-furan-2-carboxylic acid [5-(4-hydroxy-butylcarbamoyl)-2-(4-o-tolyl-piperazin-1-yl)-phenyl]-amide]	Assay B % at 5 μM ([2]; 5 μM, Table 1): 177%
		< 100		Cc1ccccc1N1CCN(c2ccc(C(=O)NCc3cccc(C(N)=O)c3)cc2NC(=O)c2coc(C3CC3)n2)CC1 [Compound 304]	Assay B % at 1.25 μM ([2]; Table 2): 79%
		100 to 1000	1000 to 10000	Cc1ccccc1N1CCN(c2ccc(C(=O)NCCc3cccc(C(N)=O)c3)cc2NC(=O)c2coc(C3CC3)n2)CC1 [Compound 307]	
		100 to 1000	100 to 1000	Cc1ccccc1N1CCN(c2ccc(C(=O)NCc3cccc(CN(C)C)c3)cc2NC(=O)c2ccco2)CC1 [Compound 320]	
		100 to 1000	1000 to 10000	Cc1ccc(C(=O)Nc2cc(C(=O)NCCCN3CCOC3=O)ccc2N2CCN(c3ccccc3C)CC2)o1 [Compound 322]	
		100 to 1000	1000 to 10000	Cc1ncc(C(=O)Nc2cc(C(=O)NCCCN3CCCC3=O)ccc2N2CCN(c3ccccc3C)CC2)o1 [Compound 349]	
